Reference: patent US4496580A, “Oxothienobenzoxepins” (Hoechst-Roussel Pharmaceuticals Inc., priority 1981, dated 1985)

Key:
Type in all cases: in vivo
[1] = system: 2-phenyl-1,4-benzoquinone-induced writhing; experiment: 2-phenyl-1,4-benzoquinone-induced writhing test in mice (PQW); settings: for ED50: Mus musculus, PQW, mice, analgesic
Text: (The phenylquinone-induced writhing test is hereinafter referred to as PQW).

[2] = system: carrageenan-induced rat paw edema; experiment: carrageenan-induced rat paw edema antiinflammatory assay (CPE); settings: for ED50: CPE, rat, antiinflammatory
Text: (The carrageenan-induced rat paw edema test is hereinafter referred to as CPE).

[3] = ulcerogenic activity test (GI); settings: for TD50: in vivo
Text: (The ulcerogenic ativity test is hereafter referred to as GI).

Compound	ED50 [1]	ED50 [2]	TD50 [3]	activity in the PQW test ([1]; result in words)	activity in the CPE test ([2]; result in words)	incidence of ulcers / ulcerogenic activity ([3]; result in words, test animals, very high dosage levels)
O=C(O)Cc1ccc2c(c1)C(=O)c1sccc1CO2 [Compound 1, reference compound]	4.5 mg/kg	3.4 mg/kg	33.7 mg/kg			
CC(C)OC(=O)Cc1ccc2c(c1)C(=O)c1sccc1CO2 [Compound 2, reference compound]	13.7 mg/kg	1.6 mg/kg	21.6 mg/kg			
O=C1c2cc(CCCCO)ccc2OCc2ccsc21 [Compound 3, 4-(4,10-Dihydro-10-oxothieno[3,2-c][1]benzoxepin-8-yl)butanol]	7.4 mg/kg	8.6 mg/kg	> 400 mg/kg	exhibit activity	exhibit activity	very low incidence of ulcers
